Measurements as given in ChEMBL document CHEMBL1201861, “Genomics of Drug Sensitity in Cancer screening data, Wellcome Trust Sanger Institute”.

What was measured:
Experiment in all cases: cells
NB12 = format: functional, cell-based, Homo sapiens; conditions: Homo sapiens, NB12;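 further: growth inhibition of human NB12 cells, read out by a cell viability assay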
Description: SANGER: Inhibition of human NB12 cell growth in a cell viability assay.

OAW-28 = format: functional, cell-based, Homo sapiens; conditions: Homo sapiens, OAW-28;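 further: growth inhibition of OAW-28 cells, read out with a cell viability assay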
Description: SANGER: Inhibition of human OAW-28 cell growth in a cell viability assay.

CAKI-1 = format: functional, cell-based, Homo sapiens; conditions: Homo sapiens, CAKI-1;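 further: growth inhibition of CAKI-1 cells, measured by a cell viability assay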
Description: SANGER: Inhibition of human CAKI-1 cell growth in a cell viability assay.

KNS-62 = format: functional, cell-based; conditions: Homo sapiens;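 further: inhibition of cell growth, read out with a cell viability assay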
Description: SANGER: Inhibition of human KNS-62 cell growth in a cell viability assay.

NCI-H1299 = format: functional, cell-based, Homo sapiens; conditions: Homo sapiens, NCI-H1299;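 further: growth inhibition of human NCI-H1299 cells, read out by a cell viability assay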
Description: SANGER: Inhibition of human NCI-H1299 cell growth in a cell viability assay.

G-402 = format: functional, cell-based, Homo sapiens; conditions: Homo sapiens, G-402
Description: SANGER: Inhibition of human G-402 cell growth in a cell viability assay.

NB17 = format: functional, cell-based; conditions: Homo sapiens;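 further: growth inhibition of NB17 cells, read out with a cell viability assay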
Description: SANGER: Inhibition of human NB17 cell growth in a cell viability assay.

KALS-1 = format: functional, cell-based, Homo sapiens; conditions: Homo sapiens, KALS-1;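 further: growth inhibition of KALS-1 cells, determined with a cell viability assay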
Description: SANGER: Inhibition of human KALS-1 cell growth in a cell viability assay.

KU-19-19 = format: functional, cell-based, Homo sapiens; conditions: Homo sapiens, KU-19-19
Description: SANGER: Inhibition of human KU-19-19 cell growth in a cell viability assay.

SW1990 = format: functional, cell-based, Homo sapiens; conditions: Homo sapiens, SW1990;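 further: cell growth inhibition determined with a viability assay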
Description: SANGER: Inhibition of human SW1990 cell growth in a cell viability assay.

Lu-65 = format: functional, cell-based; conditions: Homo sapiens;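 further: growth inhibition of Lu-65 cancer cells, read out by a cell viability assay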
Description: SANGER: Inhibition of human LU-65 cell growth in a cell viability assay.

H-EMC-SS = format: functional, cell-based; conditions: Homo sapiens
Description: SANGER: Inhibition of human H-EMC-SS cell growth in a cell viability assay.

YH-13 = format: functional, cell-based; conditions: Homo sapiens;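 further: cell viability readout of growth suppression in the human YH-13 cell line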
Description: SANGER: Inhibition of human YH-13 cell growth in a cell viability assay.

NCI-H1666 = format: functional, cell-based; conditions: Homo sapiens;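 further: growth inhibition of the cell line, read out with a cell viability assay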
Description: SANGER: Inhibition of human NCI-H1666 cell growth in a cell viability assay.

DoTc2-4510 = format: functional, cell-based, Homo sapiens; conditions: Homo sapiens, DoTc2-4510
Ca9-22 = format: functional, cell-based, Homo sapiens; conditions: Homo sapiens, Ca9-22;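 further: growth inhibition of Ca9-22 cells, read out with a cell viability assay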
Description: SANGER: Inhibition of human Ca9-22 cell growth in a cell viability assay.

KURAMOCHI = format: functional, cell-based; conditions: Homo sapiens;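 further: growth inhibition of KURAMOCHI cells, read out with a cell viability assay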
Description: SANGER: Inhibition of human KURAMOCHI cell growth in a cell viability assay.

D283 Med = format: functional, cell-based, Homo sapiens; conditions: Homo sapiens, D283 Med
Description: SANGER: Inhibition of human D-283MED cell growth in a cell viability assay.

SAS = format: functional, cell-based, Homo sapiens; conditions: Homo sapiens, SAS;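 further: growth inhibition of SAS cells, read out with a cell viability assay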
Description: SANGER: Inhibition of human SAS cell growth in a cell viability assay.

OC-314 = format: functional, cell-based; conditions: Homo sapiens
Description: SANGER: Inhibition of human OC-314 cell growth in a cell viability assay.

MOLT-13 = format: functional, cell-based; conditions: Homo sapiens;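 further: IC50 for suppression of MOLT-13 cell growth, read out with a cell viability assay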
Description: SANGER: Inhibition of human MOLT-13 cell growth in a cell viability assay.

GI-1 = format: functional, cell-based, Homo sapiens; conditions: Homo sapiens, GI-1;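 further: growth inhibition of human GI-1 cells, measured with a cell viability readout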
Description: SANGER: Inhibition of human GI-1 cell growth in a cell viability assay.

OAW-42 = format: functional, cell-based, Homo sapiens; conditions: Homo sapiens, OAW-42;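 further: growth inhibition of OAW-42 cells, read out with a cell viability assay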
Description: SANGER: Inhibition of human OAW-42 cell growth in a cell viability assay.

A4-Fuk = format: functional, cell-based; conditions: Homo sapiens;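 further: growth inhibition of A4-Fuk cells, read out by a cell viability assay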
Description: SANGER: Inhibition of human A4-Fuk cell growth in a cell viability assay.

PANC-08-13 = format: functional, cell-based, Homo sapiens; conditions: Homo sapiens, PANC-08-13;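 further: cell growth inhibition, measured with a cell viability assay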
Description: SANGER: Inhibition of human PANC-08-13 cell growth in a cell viability assay.

NCI-H1703 = format: functional, cell-based, Homo sapiens; conditions: Homo sapiens, NCI-H1703;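 further: growth inhibition of NCI-H1703 cells, read out via a cell viability assay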
Description: SANGER: Inhibition of human NCI-H1703 cell growth in a cell viability assay.

Kasumi 1 = format: functional, cell-based; conditions: Homo sapiens;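 further: growth inhibition of human Kasumi-1 cells, read out by a cell viability assay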
Description: SANGER: Inhibition of human KASUMI-1 cell growth in a cell viability assay.

G-361 = format: functional, cell-based, Homo sapiens; conditions: Homo sapiens, G-361
NCI-H2009 = format: functional, cell-based, Homo sapiens; conditions: Homo sapiens, NCI-H2009;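 further: cell viability assay measuring inhibition of NCI-H2009 cell growth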
Description: SANGER: Inhibition of human NCI-H2009 cell growth in a cell viability assay.

| SMILES | IC50 (NB12) | IC50 (OAW-28) | IC50 (CAKI-1) | IC50 (KNS-62) | IC50 (NCI-H1299) | IC50 (G-402) | IC50 (NB17) | IC50 (KALS-1) | IC50 (KU-19-19) | IC50 (SW1990) | IC50 (H-EMC-SS) | IC50 (YH-13) | IC50 (NCI-H1666) | IC50 (DoTc2-4510) | IC50 (Ca9-22) | IC50 (KURAMOCHI) | IC50 (D283 Med) | IC50 (SAS) | IC50 (OC-314) | IC50 (GI-1) | further results |
| --- | --- | --- | --- | --- | --- | --- | --- | --- | --- | --- | --- | --- | --- | --- | --- | --- | --- | --- | --- | --- | --- |
| COc1cc(F)c(F)c(Nc2ccc(I)cc2F)c1NS(=O)(=O)C1(CC(O)CO)CC1 (stereo not drawn) | > 5 µM | > 5 µM | > 5 µM | 1.87 µM | > 5 µM | > 5 µM | > 5 µM | > 5 µM | 0.366 µM | > 5 µM | 0.917 µM | 2.68 µM | 0.889 µM | > 5 µM | 0.981 µM | > 5 µM | > 5 µM | 3.94 µM | > 5 µM | > 5 µM | IC50 (Lu-65): 3.28 µM; IC50 (MOLT-13): > 5 µM; IC50 (OAW-42): > 5 µM; IC50 (A4-Fuk): 1.85 µM; IC50 (PANC-08-13): > 5 µM |
| O=C1N=C(NCc2cccs2)S/C1=C\c1ccc2ncccc2c1 | > 5 µM | > 5 µM | > 5 µM | > 5 µM | > 5 µM | > 5 µM | > 5 µM | > 5 µM | > 5 µM | > 5 µM | > 5 µM | 4.76 µM | > 5 µM | > 5 µM | > 5 µM | > 5 µM | > 5 µM | > 5 µM | > 5 µM | > 5 µM | IC50 (Lu-65): > 5 µM; IC50 (MOLT-13): > 5 µM; IC50 (OAW-42): > 5 µM; IC50 (A4-Fuk): 2.06 µM; IC50 (PANC-08-13): > 5 µM |
| COc1ccc(-c2ccc3c(N4CCOC[C@@H]4C)nc(N4CCOC[C@@H]4C)nc3n2)cc1CO [AZD-8055] | > 2 µM | > 2 µM | 0.746 µM | 0.506 µM | 1.5 µM | 0.0998 µM | > 2 µM | > 2 µM | 0.851 µM | 1.48 µM | > 2 µM | 0.549 µM | > 2 µM | > 2 µM | 0.787 µM | > 2 µM | 0.147 µM | > 2 µM | 1.3 µM | > 2 µM | IC50 (Lu-65): 1.26 µM; IC50 (MOLT-13): 0.665 µM; IC50 (OAW-42): 0.592 µM; IC50 (A4-Fuk): 1.2 µM; IC50 (PANC-08-13): 0.574 µM |
| CC(=O)O[C@@]12CO[C@@H]1C[C@H](O)[C@@]1(C)C(=O)[C@H](O)C3=C(C)[C@@H](OC(=O)[C@H](O)[C@@H](NC(=O)OC(C)(C)C)c4ccccc4)C[C@@](O)([C@@H](OC(=O)c4ccccc4)[C@H]21)C3(C)C [DOCETAXEL] | > 0.01 µM | > 0.01 µM | > 0.01 µM | 0.00112 µM | 0.00857 µM | 0.000706 µM | 0.00189 µM | 0.00181 µM | > 0.01 µM | > 0.01 µM | > 0.01 µM | 0.000791 µM | 0.00505 µM | > 0.01 µM | 0.000423 µM | > 0.01 µM | 0.00624 µM | 0.00134 µM | 0.00256 µM | 0.000528 µM | IC50 (NCI-H1703): 0.00157 µM; IC50 (Lu-65): > 0.01 µM; IC50 (Kasumi 1): 0.00511 µM; IC50 (MOLT-13): > 0.01 µM; IC50 (OAW-42): > 0.01 µM; IC50 (A4-Fuk): 0.0039 µM; IC50 (PANC-08-13): > 0.01 µM; IC50 (G-361): > 0.01 µM |
| O=c1cc(-c2cccc3c2Sc2ccccc2S3)oc(N2CCOCC2)c1 [KU-55933] | > 10 µM | > 10 µM | > 10 µM | > 10 µM | > 10 µM | > 10 µM | > 10 µM | > 10 µM | > 10 µM | > 10 µM | > 10 µM | > 10 µM | > 10 µM | > 10 µM | > 10 µM | > 10 µM | > 10 µM | > 10 µM | > 10 µM | > 10 µM | IC50 (NCI-H1703): > 10 µM; IC50 (NCI-H2009): > 10 µM; IC50 (OAW-42): > 10 µM; IC50 (A4-Fuk): > 10 µM; IC50 (PANC-08-13): > 10 µM; IC50 (G-361): > 10 µM |
| CN(Cc1cnc2nc(N)nc(N)c2n1)c1ccc(C(=O)N[C@@H](CCC(=O)O)C(=O)O)cc1 [METHOTREXATE] | > 0.2 µM | > 0.2 µM | > 0.2 µM | > 0.2 µM | > 0.2 µM | > 0.2 µM | > 0.2 µM | > 0.2 µM | > 0.2 µM | > 0.2 µM | > 0.2 µM | > 0.2 µM | > 0.2 µM | > 0.2 µM | > 0.2 µM | > 0.2 µM | > 0.2 µM | > 0.2 µM | > 0.2 µM | > 0.2 µM | IC50 (NCI-H1703): > 0.2 µM; IC50 (Lu-65): > 0.2 µM; IC50 (OAW-42): > 0.2 µM; IC50 (A4-Fuk): 0.0382 µM; IC50 (PANC-08-13): > 0.2 µM |
| COc1ccc(C2=N[C@@H](c3ccc(Cl)cc3)[C@@H](c3ccc(Cl)cc3)N2C(=O)N2CCNC(=O)C2)c(OC(C)C)c1 [NUTLIN-3] | > 8 µM | > 8 µM | 3.13 µM | > 8 µM | > 8 µM | 3.81 µM | 4.32 µM | > 8 µM | > 8 µM | > 8 µM | 6.39 µM | > 8 µM | > 8 µM | > 8 µM | > 8 µM | > 8 µM | 3.58 µM | > 8 µM | > 8 µM | > 8 µM | IC50 (Lu-65): > 8 µM; IC50 (MOLT-13): > 8 µM; IC50 (OAW-42): > 8 µM; IC50 (A4-Fuk): > 8 µM; IC50 (PANC-08-13): > 8 µM |
| O=C(c1cc(Cc2n[nH]c(=O)c3ccccc23)ccc1F)N1CCN(C(=O)C2CC2)CC1 [OLAPARIB] | > 5 µM | > 5 µM | > 5 µM | > 5 µM | > 5 µM | > 5 µM | > 5 µM | > 5 µM | > 5 µM | > 5 µM | > 5 µM | > 5 µM | > 5 µM | > 5 µM | > 5 µM | > 5 µM | > 5 µM | > 5 µM | > 5 µM | > 5 µM | IC50 (NCI-H1703): > 5 µM; IC50 (Lu-65): > 5 µM; IC50 (Kasumi 1): 4.4 µM; IC50 (MOLT-13): > 5 µM; IC50 (OAW-42): > 5 µM; IC50 (A4-Fuk): > 5 µM; IC50 (PANC-08-13): > 5 µM |
| Cn1cc(C2=C(c3ccc(Cl)cc3Cl)C(=O)NC2=O)c2ccccc21 [SB-216763] | > 10 µM | > 10 µM | > 10 µM | > 10 µM | > 10 µM | > 10 µM | > 10 µM | > 10 µM | > 10 µM | > 10 µM | > 10 µM | > 10 µM | > 10 µM | > 10 µM | > 10 µM | > 10 µM | > 10 µM | > 10 µM | > 10 µM | > 10 µM | IC50 (NCI-H1703): > 10 µM; IC50 (Lu-65): > 10 µM; IC50 (NCI-H2009): > 10 µM; IC50 (OAW-42): > 10 µM; IC50 (A4-Fuk): > 10 µM; IC50 (PANC-08-13): > 10 µM; IC50 (G-361): > 10 µM |
